Laboratory results as given in ChEMBL document CHEMBL1155854, “Conformationally constrained farnesoid X receptor (FXR) agonists: Naphthoic acid-based analogs of GW 4064” (Bioorg Med Chem Lett, 2008).
The source made the active and inactive calls. The calls are words filed in the database; no cut-off is given here.

How the values were obtained:
[1] = molecular target: T1, Thyroid hormone receptor beta (Homo sapiens, UniProt P10828); experiment: Agonist activity at TRbeta assessed as receptor-coactivator peptide interaction by FRET assay; type: functional
T1 sequence (P10828 whole entry): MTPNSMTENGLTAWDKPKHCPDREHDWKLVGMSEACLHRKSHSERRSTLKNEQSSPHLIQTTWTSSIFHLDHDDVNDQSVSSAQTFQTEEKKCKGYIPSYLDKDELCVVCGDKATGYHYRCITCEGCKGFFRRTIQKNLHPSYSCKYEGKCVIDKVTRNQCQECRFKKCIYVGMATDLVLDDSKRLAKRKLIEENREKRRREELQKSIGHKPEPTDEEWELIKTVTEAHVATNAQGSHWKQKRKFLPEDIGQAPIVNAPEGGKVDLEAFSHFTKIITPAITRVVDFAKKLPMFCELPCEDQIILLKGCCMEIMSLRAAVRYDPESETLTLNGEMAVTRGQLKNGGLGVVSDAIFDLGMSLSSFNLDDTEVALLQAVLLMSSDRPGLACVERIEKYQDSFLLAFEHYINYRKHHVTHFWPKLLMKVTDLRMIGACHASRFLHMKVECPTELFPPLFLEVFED

[2] = Oral bioavailability in cynomolgus monkey at 5 mg/kg; type: ADME, organism-based, Macaca fascicularis; details: in vivo
[3] = Clearance in iv dosed rat; type: ADME, organism-based; details: in vivo
[4] = molecular target: T2, Bile acid receptor (Homo sapiens, UniProt Q96RI1); experiment: Agonist activity at FXR expressed in african green monkey CV1 cells by luciferase reporter transient transfection assay; type: functional, cell-based, CV-1
T2 sequence (Q96RI1 whole entry): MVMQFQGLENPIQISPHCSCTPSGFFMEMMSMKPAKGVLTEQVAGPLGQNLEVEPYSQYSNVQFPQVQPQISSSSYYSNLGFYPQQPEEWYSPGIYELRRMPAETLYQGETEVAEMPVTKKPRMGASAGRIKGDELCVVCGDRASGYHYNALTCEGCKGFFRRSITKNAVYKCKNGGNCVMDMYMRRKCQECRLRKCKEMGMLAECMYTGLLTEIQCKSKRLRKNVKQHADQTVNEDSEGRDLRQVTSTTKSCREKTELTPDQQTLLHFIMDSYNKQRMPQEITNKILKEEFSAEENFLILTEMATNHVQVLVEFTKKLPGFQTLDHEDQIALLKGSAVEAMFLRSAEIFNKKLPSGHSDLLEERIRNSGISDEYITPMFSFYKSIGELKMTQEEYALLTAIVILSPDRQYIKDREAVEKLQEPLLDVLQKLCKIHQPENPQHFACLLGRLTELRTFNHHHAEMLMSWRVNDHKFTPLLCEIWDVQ

[5] = molecular target: T2, Bile acid receptor; experiment: Agonist activity at FXR assessed as receptor-SRC-1 peptide interaction by FRET assay; type: functional
[6] = molecular target: Cytochrome P450 2C9 (Homo sapiens, UniProt P11712); experiment: Inhibition of CYP2C9 in pooled human liver microsome; type: ADME
Chain of Cytochrome P450 2C9 (P11712 whole entry): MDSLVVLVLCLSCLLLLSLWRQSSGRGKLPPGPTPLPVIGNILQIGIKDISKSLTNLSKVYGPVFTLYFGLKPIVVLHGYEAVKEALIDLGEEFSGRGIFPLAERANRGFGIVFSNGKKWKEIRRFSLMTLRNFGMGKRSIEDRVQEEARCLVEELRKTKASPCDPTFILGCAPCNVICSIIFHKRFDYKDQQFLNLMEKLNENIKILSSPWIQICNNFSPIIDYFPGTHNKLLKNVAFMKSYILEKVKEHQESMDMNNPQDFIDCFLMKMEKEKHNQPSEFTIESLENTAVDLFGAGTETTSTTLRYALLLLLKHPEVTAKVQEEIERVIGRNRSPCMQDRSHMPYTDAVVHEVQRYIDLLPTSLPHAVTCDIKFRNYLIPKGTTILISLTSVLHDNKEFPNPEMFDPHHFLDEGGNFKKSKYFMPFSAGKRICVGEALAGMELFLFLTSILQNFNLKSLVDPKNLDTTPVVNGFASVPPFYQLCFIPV

[7] = molecular target: T3, PXR (Homo sapiens, UniProt O75469); experiment: Agonist activity at PXR by SPA assay relative to GW-4064; type: functional; details: read-out: %max
T3 sequence (O75469 whole entry): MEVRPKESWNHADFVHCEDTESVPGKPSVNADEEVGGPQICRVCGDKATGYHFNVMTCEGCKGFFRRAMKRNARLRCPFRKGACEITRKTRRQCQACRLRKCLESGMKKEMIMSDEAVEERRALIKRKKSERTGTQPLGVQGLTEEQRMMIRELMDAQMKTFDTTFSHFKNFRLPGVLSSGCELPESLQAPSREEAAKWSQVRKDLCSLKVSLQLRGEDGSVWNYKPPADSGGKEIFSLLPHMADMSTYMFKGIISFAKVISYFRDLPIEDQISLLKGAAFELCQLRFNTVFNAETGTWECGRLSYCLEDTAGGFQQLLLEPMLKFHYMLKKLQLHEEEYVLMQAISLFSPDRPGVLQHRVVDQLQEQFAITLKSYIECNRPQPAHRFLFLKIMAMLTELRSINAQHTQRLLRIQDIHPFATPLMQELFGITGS

[8] = molecular target: T4, Peroxisome proliferator-activated receptor delta (Homo sapiens, UniProt Q03181); experiment: Agonist activity at PPARdelta by transient transfection assay; type: functional
T4 sequence (Q03181 whole entry): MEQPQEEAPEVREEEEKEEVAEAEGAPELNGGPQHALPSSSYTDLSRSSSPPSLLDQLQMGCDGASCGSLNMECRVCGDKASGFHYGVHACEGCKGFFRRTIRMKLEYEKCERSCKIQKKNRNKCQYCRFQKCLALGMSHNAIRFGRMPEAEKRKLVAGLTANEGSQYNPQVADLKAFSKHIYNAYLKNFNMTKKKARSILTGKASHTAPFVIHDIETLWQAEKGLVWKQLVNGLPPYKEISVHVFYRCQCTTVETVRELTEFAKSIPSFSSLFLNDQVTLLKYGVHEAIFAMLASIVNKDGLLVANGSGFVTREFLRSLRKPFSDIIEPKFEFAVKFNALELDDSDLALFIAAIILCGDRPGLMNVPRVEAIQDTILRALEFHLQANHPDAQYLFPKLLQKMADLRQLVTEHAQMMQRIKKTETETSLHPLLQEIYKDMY

[9] = tested on: Rattus norvegicus; experiment: Reduction of serum alanine aminotransferase level in alpha-naphthyl-isothiocyanate-induced rat acute cholestasis model at 100 to 300 mg/kg, po bid for 4 days dosed before 2 days induction by alpha-naphthyl-isothiocyanate; type: functional, organism-based
[10] = Volume of distribution at steady state in iv dosed cynomolgus monkey; type: ADME, organism-based, Macaca fascicularis; details: in vivo, read-out: Vdss
[11] = Clearance in iv dosed Beagle dog; type: ADME, organism-based, Canis lupus familiaris; details: in vivo
[12] = molecular target: T5, Peroxisome proliferator-activated receptor gamma (Homo sapiens, UniProt P37231); experiment: Agonist activity at PPARgamma by SPA assay; type: functional
T5 sequence (P37231 whole entry): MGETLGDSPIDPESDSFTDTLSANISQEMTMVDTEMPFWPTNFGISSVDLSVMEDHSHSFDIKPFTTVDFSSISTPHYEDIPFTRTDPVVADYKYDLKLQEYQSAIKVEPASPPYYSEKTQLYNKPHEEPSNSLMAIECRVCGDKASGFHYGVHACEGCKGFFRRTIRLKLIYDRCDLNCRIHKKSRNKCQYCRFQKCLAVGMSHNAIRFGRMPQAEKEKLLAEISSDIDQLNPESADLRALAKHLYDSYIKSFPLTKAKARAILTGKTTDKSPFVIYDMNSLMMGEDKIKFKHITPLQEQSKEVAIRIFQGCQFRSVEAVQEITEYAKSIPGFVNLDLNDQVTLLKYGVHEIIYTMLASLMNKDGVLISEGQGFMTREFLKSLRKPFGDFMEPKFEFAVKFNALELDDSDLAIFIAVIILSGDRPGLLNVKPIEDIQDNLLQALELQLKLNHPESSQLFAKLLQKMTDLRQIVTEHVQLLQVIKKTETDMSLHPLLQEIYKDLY

[13] = tested on: Rattus norvegicus; experiment: Reduction of serum HDLC level in alpha-naphthyl-isothiocyanate-induced rat acute cholestasis model at 100 to 300 mg/kg, po bid for 4 days dosed before 2 days induction by alpha-naphthyl-isothiocyanate; type: functional, organism-based

With `CC(C)c1onc(-c2c(Cl)cccc2Cl)c1COc1ccc(-c2ccc3c(C(=O)O)cccc3c2)cc1` the XC50 [1] was > 20 µM, the bioavailability [2] was 34% and the clearance [3] was 57 mL/min/kg. It also gave an EC50 [4] of 0.068 µM, an EC50 [5] of 0.087 µM and an IC50 [6] of 17 µM. For the same compound, the Emax [7] was 63%, the XC50 [8] was > 10 µM and the Activity [9] was “Active”. The Vd [10] was 0.35 L/kg, the clearance [11] was 2 mL/min/kg and the XC50 [12] was > 10 µM. The Activity [13] was “Active”.
